#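 Results reflect a 48-hour exposure of cells in 96-well plates to compound at five concentrations. TGI is the concentration that stops growth completely.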
# Legend:
# Assay in all cases: inhibition of tumour cell growth, NCI panel, 48 h
# 786-0 renal = tested on: 786-0 renal
# A498 renal = tested on: A498 renal
# A549 NSCLC = tested on: A549 NSCLC
# ACHN renal = tested on: ACHN renal
# BT-549 breast = tested on: BT-549 breast
# CAKI-1 renal = tested on: CAKI-1 renal
# CCRF-CEM leukemia = tested on: CCRF-CEM leukemia
# COLO 205 colon = tested on: COLO 205 colon
# DU-145 prostate = tested on: DU-145 prostate
# EKVX NSCLC = tested on: EKVX NSCLC
# HCT-116 colon = tested on: HCT-116 colon
# HCT-15 colon = tested on: HCT-15 colon
# HL-60(TB) leukemia = tested on: HL-60(TB) leukemia
# HOP-62 NSCLC = tested on: HOP-62 NSCLC
# HOP-92 NSCLC = tested on: HOP-92 NSCLC
# HS 578T breast = tested on: HS 578T breast
# HT29 colon = tested on: HT29 colon
# IGROV1 ovarian = tested on: IGROV1 ovarian
# K-562 leukemia = tested on: K-562 leukemia
# KM12 colon = tested on: KM12 colon
# LOX IMVI melanoma = tested on: LOX IMVI melanoma
# M14 melanoma = tested on: M14 melanoma
# MALME-3M melanoma = tested on: MALME-3M melanoma
# MCF7 breast = tested on: MCF7 breast
# MDA-MB-231 breast = tested on: MDA-MB-231 breast
# MDA-MB-435 = tested on: MDA-MB-435
# MDA-N = tested on: MDA-N
# MOLT-4 leukemia = tested on: MOLT-4 leukemia
# NCI-H226 lung = tested on: NCI-H226 lung
# NCI-H23 lung = tested on: NCI-H23 lung
# NCI-H460 lung = tested on: NCI-H460 lung
# NCI-H522 lung = tested on: NCI-H522 lung
# NCI/ADR-RES ovarian = tested on: NCI/ADR-RES ovarian
# OVCAR-3 ovarian = tested on: OVCAR-3 ovarian
# OVCAR-4 ovarian = tested on: OVCAR-4 ovarian
# OVCAR-5 ovarian = tested on: OVCAR-5 ovarian
# OVCAR-8 ovarian = tested on: OVCAR-8 ovarian
# PC-3 prostate = tested on: PC-3 prostate
# RPMI-8226 leukemia = tested on: RPMI-8226 leukemia
# RXF 393 renal = tested on: RXF 393 renal
# SF-268 CNS = tested on: SF-268 CNS
# SF-295 CNS = tested on: SF-295 CNS
# SF-539 CNS = tested on: SF-539 CNS
# SK-MEL-2 melanoma = tested on: SK-MEL-2 melanoma
# SK-MEL-28 melanoma = tested on: SK-MEL-28 melanoma
# SK-MEL-5 melanoma = tested on: SK-MEL-5 melanoma
# SK-OV-3 ovarian = tested on: SK-OV-3 ovarian
# SN12C renal = tested on: SN12C renal
# SNB-19 CNS = tested on: SNB-19 CNS
# SNB-75 CNS = tested on: SNB-75 CNS
# SR leukemia = tested on: SR leukemia
# SW-620 colon = tested on: SW-620 colon
# T-47D breast = tested on: T-47D breast
# TK-10 renal = tested on: TK-10 renal
# U251 CNS = tested on: U251 CNS
# UACC-257 melanoma = tested on: UACC-257 melanoma
# UACC-62 melanoma = tested on: UACC-62 melanoma
# UO-31 renal = tested on: UO-31 renal
# HCC-2998 colon = tested on: HCC-2998 colon
smiles,measurement,setting,value
Nc1n[nH]c2ccccc12,TGI,786-0 renal,> 100 µM
same,TGI,A498 renal,> 100 µM
same,TGI,A549 NSCLC,> 100 µM
same,TGI,ACHN renal,> 100 µM
same,TGI,BT-549 breast,> 100 µM
same,TGI,CAKI-1 renal,> 100 µM
same,TGI,CCRF-CEM leukemia,> 100 µM
same,TGI,COLO 205 colon,> 100 µM
same,TGI,DU-145 prostate,> 100 µM
same,TGI,EKVX NSCLC,> 100 µM
same,TGI,HCT-116 colon,> 100 µM
same,TGI,HCT-15 colon,> 100 µM
same,TGI,HL-60(TB) leukemia,> 100 µM
same,TGI,HOP-62 NSCLC,> 100 µM
same,TGI,HOP-92 NSCLC,> 100 µM
same,TGI,HS 578T breast,> 100 µM
same,TGI,HT29 colon,> 100 µM
same,TGI,IGROV1 ovarian,> 100 µM
same,TGI,K-562 leukemia,> 100 µM
same,TGI,KM12 colon,> 100 µM
same,TGI,LOX IMVI melanoma,> 100 µM
same,TGI,M14 melanoma,> 100 µM
same,TGI,MALME-3M melanoma,> 100 µM
same,TGI,MCF7 breast,> 100 µM
same,TGI,MDA-MB-231 breast,> 100 µM
same,TGI,MDA-MB-435,> 100 µM
same,TGI,MDA-N,> 100 µM
same,TGI,MOLT-4 leukemia,> 100 µM
same,TGI,NCI-H226 lung,> 100 µM
same,TGI,NCI-H23 lung,> 100 µM
same,TGI,NCI-H460 lung,> 100 µM
same,TGI,NCI-H522 lung,> 100 µM
same,TGI,NCI/ADR-RES ovarian,> 100 µM
same,TGI,OVCAR-3 ovarian,> 100 µM
same,TGI,OVCAR-4 ovarian,> 100 µM
same,TGI,OVCAR-5 ovarian,> 100 µM
same,TGI,OVCAR-8 ovarian,> 100 µM
same,TGI,PC-3 prostate,> 100 µM
same,TGI,RPMI-8226 leukemia,> 100 µM
same,TGI,RXF 393 renal,> 100 µM
same,TGI,SF-268 CNS,> 100 µM
same,TGI,SF-295 CNS,> 100 µM
same,TGI,SF-539 CNS,> 100 µM
same,TGI,SK-MEL-2 melanoma,> 100 µM
same,TGI,SK-MEL-28 melanoma,> 100 µM
same,TGI,SK-MEL-5 melanoma,> 100 µM
same,TGI,SK-OV-3 ovarian,> 100 µM
same,TGI,SN12C renal,> 100 µM
same,TGI,SNB-19 CNS,> 100 µM
same,TGI,SNB-75 CNS,> 100 µM
same,TGI,SR leukemia,> 100 µM
same,TGI,SW-620 colon,> 100 µM
same,TGI,T-47D breast,> 100 µM
same,TGI,TK-10 renal,> 100 µM
same,TGI,U251 CNS,> 100 µM
same,TGI,UACC-257 melanoma,> 100 µM
same,TGI,UACC-62 melanoma,> 100 µM
same,TGI,UO-31 renal,> 100 µM
COc1ccc2c(c1)[C@@]13CCN4CC5=CCO[C@H]6CC(=O)N2[C@H]1[C@H]6[C@H]5C[C@H]43,TGI,786-0 renal,> 100 µM
same,TGI,A498 renal,> 100 µM
same,TGI,A549 NSCLC,> 100 µM
same,TGI,ACHN renal,> 100 µM
same,TGI,BT-549 breast,> 100 µM
same,TGI,CAKI-1 renal,> 100 µM
same,TGI,CCRF-CEM leukemia,> 100 µM
same,TGI,COLO 205 colon,> 100 µM
same,TGI,DU-145 prostate,> 100 µM
same,TGI,EKVX NSCLC,> 100 µM
same,TGI,HCC-2998 colon,> 100 µM
same,TGI,HCT-116 colon,> 100 µM
same,TGI,HCT-15 colon,> 100 µM
same,TGI,HL-60(TB) leukemia,> 100 µM
same,TGI,HOP-62 NSCLC,> 100 µM
same,TGI,HOP-92 NSCLC,> 100 µM
same,TGI,HS 578T breast,> 100 µM
same,TGI,HT29 colon,> 100 µM
same,TGI,IGROV1 ovarian,> 100 µM
same,TGI,KM12 colon,> 100 µM
same,TGI,LOX IMVI melanoma,> 100 µM
same,TGI,M14 melanoma,> 100 µM
same,TGI,MALME-3M melanoma,> 100 µM
same,TGI,MCF7 breast,> 100 µM
same,TGI,MDA-MB-231 breast,> 100 µM
same,TGI,MDA-MB-435,> 100 µM
same,TGI,MDA-N,> 100 µM
same,TGI,MOLT-4 leukemia,> 100 µM
same,TGI,NCI-H226 lung,30.9 µM
same,TGI,NCI-H23 lung,> 100 µM
same,TGI,NCI-H460 lung,> 100 µM
same,TGI,NCI-H522 lung,> 100 µM
same,TGI,NCI/ADR-RES ovarian,> 100 µM
same,TGI,OVCAR-3 ovarian,> 100 µM
same,TGI,OVCAR-4 ovarian,> 100 µM
same,TGI,OVCAR-5 ovarian,> 100 µM
same,TGI,OVCAR-8 ovarian,> 100 µM
same,TGI,PC-3 prostate,> 100 µM
same,TGI,RPMI-8226 leukemia,> 100 µM
same,TGI,RXF 393 renal,> 100 µM
same,TGI,SF-268 CNS,> 100 µM
same,TGI,SF-295 CNS,> 100 µM
same,TGI,SF-539 CNS,> 100 µM
same,TGI,SK-MEL-2 melanoma,> 100 µM
same,TGI,SK-MEL-28 melanoma,> 100 µM
same,TGI,SK-MEL-5 melanoma,> 100 µM
same,TGI,SK-OV-3 ovarian,> 100 µM
same,TGI,SN12C renal,> 100 µM
same,TGI,SNB-19 CNS,> 100 µM
same,TGI,SR leukemia,> 100 µM
same,TGI,SW-620 colon,> 100 µM
same,TGI,T-47D breast,> 100 µM
same,TGI,TK-10 renal,> 100 µM
same,TGI,U251 CNS,> 100 µM
same,TGI,UACC-257 melanoma,> 100 µM
same,TGI,UACC-62 melanoma,> 100 µM
same,TGI,UO-31 renal,> 100 µM
